Results on 31 compounds are retold here after patent US8178668B2, “2-aminopyridine kinase inhibitors” (OSI Pharmaceuticals, LLC, priority 2008, dated 2012).

For test [1], the target named is RON (human) (Homo sapiens, UniProt Q04912). Put plainly: RON kinase AlphaScreen assay (Km of ATP). In kind it is biochemical. As to conditions: ATP at Km; at least duplicate experiments. The essentials:
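AlphaScreen with PT66 donor/acceptor beads, read after 1 h, detected phosphorylation of biotinylated poly(Glu,Tyr) by human RON. Enzyme-started reactions ran 30 min at room temperature with ATP at Km. Buffer was HEPES pH 7.4 with MgCl2, glycerol, vanadate and 1% DMSO.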
(In general: In Alpha technology, singlet oxygen from a donor bead excites a nearby acceptor bead.)

The target of test [2] is MET (human) (Homo sapiens, UniProt P08581). Put plainly: MET kinase AlphaScreen assay (Km of ATP). It is filed as biochemical. As to conditions: ATP at Km; at least duplicate experiments. Summed up:
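AlphaScreen detection with PT66 beads (1 h) follows a 60 min room-temperature MET reaction. Substrate is 200 ng/μL biotinylated poly(Glu,Tyr), with ATP set at an enzyme-optimized concentration. Buffer is HEPES pH 7.4 with MgCl2, MnCl2 and 0.334 mM vanadate, compounds at 1% DMSO.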

SMILES strings stand for the structures. Counter-ions that a name gives are not always drawn.

Chain of RON (human) (Q04912 25-1400): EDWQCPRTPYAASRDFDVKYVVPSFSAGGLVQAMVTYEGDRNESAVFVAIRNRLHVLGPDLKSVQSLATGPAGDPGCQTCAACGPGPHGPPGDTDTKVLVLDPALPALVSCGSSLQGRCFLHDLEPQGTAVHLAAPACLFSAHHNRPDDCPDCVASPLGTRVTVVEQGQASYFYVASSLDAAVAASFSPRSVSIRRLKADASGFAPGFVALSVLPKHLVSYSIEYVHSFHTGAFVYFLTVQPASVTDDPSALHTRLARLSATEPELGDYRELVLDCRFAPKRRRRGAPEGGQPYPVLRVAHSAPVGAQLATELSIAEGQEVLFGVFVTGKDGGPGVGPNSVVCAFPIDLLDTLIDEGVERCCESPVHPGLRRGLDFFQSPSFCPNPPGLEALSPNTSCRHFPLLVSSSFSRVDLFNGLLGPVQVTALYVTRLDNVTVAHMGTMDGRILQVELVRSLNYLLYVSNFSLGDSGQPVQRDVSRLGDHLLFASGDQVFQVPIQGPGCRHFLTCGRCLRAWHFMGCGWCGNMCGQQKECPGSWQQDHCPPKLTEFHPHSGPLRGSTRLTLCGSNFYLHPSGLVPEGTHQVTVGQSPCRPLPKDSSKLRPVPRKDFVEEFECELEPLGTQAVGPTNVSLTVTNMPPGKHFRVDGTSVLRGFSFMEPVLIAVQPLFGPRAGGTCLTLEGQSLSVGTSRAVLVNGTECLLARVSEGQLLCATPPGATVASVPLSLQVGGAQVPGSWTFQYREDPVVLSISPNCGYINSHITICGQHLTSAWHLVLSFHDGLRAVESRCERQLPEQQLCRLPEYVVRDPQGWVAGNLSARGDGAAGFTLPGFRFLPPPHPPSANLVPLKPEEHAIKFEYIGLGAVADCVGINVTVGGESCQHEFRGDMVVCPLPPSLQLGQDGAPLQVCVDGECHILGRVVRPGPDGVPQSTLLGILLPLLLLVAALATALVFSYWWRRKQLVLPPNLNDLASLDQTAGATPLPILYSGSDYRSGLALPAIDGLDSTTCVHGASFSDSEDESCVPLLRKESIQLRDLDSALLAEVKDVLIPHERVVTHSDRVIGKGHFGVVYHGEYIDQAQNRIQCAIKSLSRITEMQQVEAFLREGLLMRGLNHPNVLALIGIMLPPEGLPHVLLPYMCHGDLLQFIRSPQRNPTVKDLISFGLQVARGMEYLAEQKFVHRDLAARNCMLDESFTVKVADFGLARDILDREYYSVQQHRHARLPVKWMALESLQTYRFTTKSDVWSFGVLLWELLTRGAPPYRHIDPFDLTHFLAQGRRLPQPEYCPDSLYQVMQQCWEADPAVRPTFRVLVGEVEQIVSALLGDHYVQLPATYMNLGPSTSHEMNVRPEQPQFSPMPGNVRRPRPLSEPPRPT
Chain of MET (human) (P08581 25-1390): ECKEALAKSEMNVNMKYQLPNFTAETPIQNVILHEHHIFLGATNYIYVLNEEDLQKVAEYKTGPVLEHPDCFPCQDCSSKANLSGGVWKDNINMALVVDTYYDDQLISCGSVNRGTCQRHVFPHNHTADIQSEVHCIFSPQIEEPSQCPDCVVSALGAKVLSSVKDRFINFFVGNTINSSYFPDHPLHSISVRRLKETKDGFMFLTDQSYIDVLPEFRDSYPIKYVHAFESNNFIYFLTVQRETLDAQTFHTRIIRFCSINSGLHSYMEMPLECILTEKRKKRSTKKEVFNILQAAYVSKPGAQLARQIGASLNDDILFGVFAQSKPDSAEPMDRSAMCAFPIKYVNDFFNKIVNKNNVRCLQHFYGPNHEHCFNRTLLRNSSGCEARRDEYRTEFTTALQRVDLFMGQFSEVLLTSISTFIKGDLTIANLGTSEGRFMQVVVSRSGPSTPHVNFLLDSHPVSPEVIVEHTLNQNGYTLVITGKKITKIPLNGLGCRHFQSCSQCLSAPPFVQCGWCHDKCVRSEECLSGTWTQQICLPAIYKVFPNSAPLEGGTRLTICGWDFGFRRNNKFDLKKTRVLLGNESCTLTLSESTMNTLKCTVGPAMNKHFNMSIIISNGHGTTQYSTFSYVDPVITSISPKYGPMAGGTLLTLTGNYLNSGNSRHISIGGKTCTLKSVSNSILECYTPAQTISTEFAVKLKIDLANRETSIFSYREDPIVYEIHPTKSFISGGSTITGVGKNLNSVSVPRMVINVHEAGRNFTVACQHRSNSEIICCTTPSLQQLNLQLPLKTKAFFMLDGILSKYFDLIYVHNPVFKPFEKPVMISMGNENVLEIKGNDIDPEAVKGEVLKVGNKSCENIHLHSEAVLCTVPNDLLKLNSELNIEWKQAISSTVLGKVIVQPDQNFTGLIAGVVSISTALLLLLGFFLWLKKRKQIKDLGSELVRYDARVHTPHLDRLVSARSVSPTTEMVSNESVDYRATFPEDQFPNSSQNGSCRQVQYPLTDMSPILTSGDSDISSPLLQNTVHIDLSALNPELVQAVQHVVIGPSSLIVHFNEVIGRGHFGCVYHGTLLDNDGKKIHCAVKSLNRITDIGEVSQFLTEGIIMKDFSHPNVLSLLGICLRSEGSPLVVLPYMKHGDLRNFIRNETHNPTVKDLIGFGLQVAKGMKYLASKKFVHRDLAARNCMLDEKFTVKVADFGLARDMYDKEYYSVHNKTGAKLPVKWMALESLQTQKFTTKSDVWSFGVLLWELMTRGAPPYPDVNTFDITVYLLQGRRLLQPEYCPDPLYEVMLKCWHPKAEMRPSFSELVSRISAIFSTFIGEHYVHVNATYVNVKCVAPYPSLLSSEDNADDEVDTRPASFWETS

As a reminder, the IC50 is the concentration needed to halve the response being measured. A lower IC50 goes with higher potency. As to `Nc1ncc(-c2cnn(C3CCNCC3)c2)cc1-c1cc2ccc(-c3ccccc3)cc2cn1` [Example 26, 3-(7-Phenylisoquinolin-3-yl)-5-(1-piperidin-4-yl-1H-pyrazol-4-yl)-pyridin-2-ylamine tri-hydrochloride salt], the IC50 in test [1] and in test [2] was 0.1 to 1 µM in each case.

Regarding `Nc1ncc(-c2cnn([C@H]3CCNC3)c2)cc1-c1cc2c(Cl)ccc(F)c2cn1` [Example 63, 3-(5-Chloro-8-fluoroisoquinolin-3-yl)-5-((S)-1-pyrrolidin-3-yl-1H-pyrazol-4-yl)-pyridin-2-ylamine trihydrochloride], the IC50 in test [1] and in test [2] was 0.1 to 1 µM throughout.

Turning to `Nc1ncc(-c2cnn(C3CCNCC3)c2)cc1-c1cc2ccccc2s1` [Example 104, 3-Benzo[b]thiophen-2-yl-5-(1-piperidin-4-yl-1H-pyrazol-4-yl)-pyridin-2-ylamine bishydrochloride], the IC50 was 0.1 to 1 µM in test [1] and at most 0.1 µM in test [2].

As for `Nc1ncc(-c2cnn(C3CCNCC3)c2)cc1-c1nc2cccc(Br)c2s1` [Example 273, 3-(7-Bromobenzothiazol-2-yl)-5-(1-piperidin-4-yl-1H-pyrazol-4-yl)-pyridin-2-ylamine], the IC50 in test [1] and in test [2] was at most 0.1 µM throughout.

Turning to `N#Cc1cccc2nc(-c3cc(-c4cnn(C5CCNCC5)c4)cnc3N)sc12` [Example 275, 2-[2-Amino-5-(1-piperidin-4-yl-1H-pyrazol-4-yl)-pyridin-3-yl]-benzothiazole-7-carbonitrile], the 50% inhibitory concentration (IC50) in test [1] and in test [2] was 0.1 to 1 µM throughout.

In the case of `Nc1ncc(-c2cnn(C3CCN(CC(=O)N4CCC(O)CC4)CC3)c2)cc1-c1nc2ccccc2s1` [Example 169, 2-{4-[4-(6-Amino-5-benzothiazol-2-ylpyridin-3-yl)-pyrazol-1-yl]-piperidin-1-yl}-1-(4-hydroxypiperidin-1-yl)ethanone], the IC50 in test [1] was 0.1 to 1 µM; in test [2] it was at most 0.1 µM.

Regarding `Nc1ncc(-c2cnn(C3CCNCC3)c2)cc1-c1cc2cc(Cl)cc(Cl)c2cn1` [Example 43, 3-(6,8-Dichloroisoquinolin-3-yl)-5-(1-piperidin-4-yl-1H-pyrazol-4-yl)-pyridin-2-ylamine trihydrochloride], the IC50 in test [1] and in test [2] was 0.1 to 1 µM each time.

On to `CCN1CCN(C(=O)NCC#Cc2cnc(N)c(-c3nc4ccccc4s3)c2)CC1` [Example 128, 4-Ethylpiperazine-1-carboxylic acid [3-(6-amino-5-benzothiazol-2-ylpyridin-3-yl)-prop-2-ynyl]-amide], for which the IC50 in test [1] and in test [2] was 1 to 20 µM each time.

Regarding `COc1nc(-c2cc(-c3cnn(C4CCNCC4)c3)cnc2N)cc2ccccc12` [Example 30, 3-(1-Methoxyisoquinolin-3-yl)-5-(1-piperidin-4-yl-1H-pyrazol-4-yl)-pyridin-2-ylamine trihydrochloride salt], the IC50 in test [1] was 1 to 20 µM; in test [2] it was 0.1 to 1 µM.

For `Nc1ncc(-c2cn[nH]c2)cc1-c1nc2ccccc2s1` [Example 112, 3-Benzothiazol-2-yl-5-(1H-pyrazol-4-yl)-pyridin-2-ylamine], the IC50 in test [1] and in test [2] was 1 to 20 µM each time.

For the compound `Nc1ncc(-c2cnn(CC(=O)NCCO)c2)cc1-c1nc2ccccc2s1` [Example 136, 2-[4-(6-Amino-5-benzothiazol-2-ylpyridin-3-yl)-pyrazol-1-yl]-N-(2-hydroxyethyl)-acetamide], the IC50 in test [1] and in test [2] was 1 to 20 µM in each case.

As to `Nc1ncc(-c2cnn([C@@H]3CCNC3)c2)cc1-c1cc2ccccc2o1` [Example 99, 3-Benzofuran-2-yl-5-((R)-1-pyrrolidin-3-yl-1H-pyrazol-4-yl)-pyridin-2-ylamine dihydrochloride], the IC50 in test [1] and in test [2] was 0.1 to 1 µM throughout.

As to `CNC(=O)C(C)n1cc(-c2cnc(N)c(-c3nc4ccccc4s3)c2)cn1` (centres unmarked) [Example 144, 2-[4-(6-Amino-5-benzothiazol-2-ylpyridin-3-yl)-pyrazol-1-yl]-N-methylpropionamide], the IC50 in test [1] and in test [2] was 1 to 20 µM in each case.

As for `Nc1ncc(-c2cnn(C3CCNCC3)c2)cc1-c1cc2ccc(O)cc2cn1` [Example 29, 3-[2-Amino-5-(1-piperidin-4-yl-1H-pyrazol-4-yl)-pyridin-3-yl]-isoquinolin-7-ol], the 50% inhibitory concentration (IC50) in test [1] and in test [2] was 0.1 to 1 µM each time.

As for `Nc1ncc(-c2cnn(C3CCNCC3)c2)cc1N1CCc2c(F)cccc2C1` [Example 301, 3-(5-Fluoro-3,4-dihydro-1H-isoquinolin-2-yl)-5-(1-piperidin-4-yl-1H-pyrazol-4-yl)-pyridin-2-ylamine], the IC50 in test [1] and in test [2] was 1 to 20 µM each time.

As to `COc1ccc2nc(-c3cc(-c4cnn(C5CCNCC5)c4)cnc3N)sc2c1` [Example 255, 3-(6-Methoxybenzothiazol-2-yl)-5-(1-piperidin-4-yl-1H-pyrazol-4-yl)-pyridin-2-ylamine], the IC50 in test [1] and in test [2] was 0.1 to 1 µM each time.

With `COC(=O)COc1cccc(-c2cnc(N)c(-c3nc4ccccc4s3)c2)c1` [Example 234, Methyl 3-[6-amino-5-(1,3-benzothiazol-2-yl)pyridin-3-yl]phenoxyacetate], the half-inhibitory concentration (IC50) was above 20 µM in test [1] and 1 to 20 µM in test [2].

With `N#Cc1ccc(F)c2cnc(-c3cc(-c4cnn(C5CCNCC5)c4)cnc3N)cc12` [Example 37, 3-[2-Amino-5-(1-piperidin-4-yl-1H-pyrazol-4-yl)-pyridin-3-yl]-8-fluoro-isoquinoline-5-carbonitrile trihydrochloride], the half-inhibitory concentration (IC50) in test [1] and in test [2] was 0.1 to 1 µM in each case.

Take `Nc1ncc(-c2cnn(C3CCNCC3)c2)cc1-c1nc2c(C(F)(F)F)c(F)ccc2s1` [Example 286, 3-(5-Fluoro-4-trifluoromethylbenzothiazol-2-yl)-5-(1-piperidin-4-yl-1H-pyrazol-4-yl)-pyridin-2-ylamine]: the IC50 in test [1] and in test [2] was 0.1 to 1 µM throughout.

Regarding `Nc1ncc(-c2cnn(C3CC4CCC(C3)N4)c2)cc1-c1nc2ccccc2s1` (centres unmarked) [Example 110, 5-[1-(8-Azabicyclo[3.2.1]oct-3-yl)-1H-pyrazol-4-yl]-3-benzothiazol-2-ylpyridin-2-ylamine], the IC50 in test [1] and in test [2] was 0.1 to 1 µM throughout.

On to `Nc1ncc(-c2cnn(C3CCNCC3)c2)cc1-c1nc2c(OC(F)(F)F)cccc2s1` [Example 285, 5-(1-Piperidin-4-yl-1H-pyrazol-4-yl)-3-(4-trifluoromethoxybenzothiazol-2-yl)-pyridin-2-ylamine], for which the 50% inhibitory concentration (IC50) in test [1] is 1 to 20 µM; in test [2], 0.1 to 1 µM.

In the case of `N#Cc1ccc2cnc(-c3cc(-c4cnn(C5CCNCC5)c4)cnc3N)cc2c1` [Example 31, 3-[2-Amino-5-(1-piperidin-4-yl-1H-pyrazol-4-yl)-pyridin-3-yl]-isoquinoline-6-carbonitrile trihydrochloride salt], the 50% inhibitory concentration (IC50) in test [1] and in test [2] was 1 to 20 µM each time.

Regarding `Nc1ncc(-c2cnn(C3CCNCC3)c2)cc1-c1cc2ccccc2o1` [Example 92, 3-Benzofuran-2-yl-5-(1-piperidin-4-yl-1H-pyrazol-4-yl)-pyridin-2-ylamine dihydrochloride], the IC50 in test [1] fell in the range of 1 to 20 µM; in test [2] it was 0.1 to 1 µM.

With `Cn1cc(-c2cnc(N)c(-c3nc4ccccc4s3)c2)cn1` [Example 119, 3-Benzothiazol-2-yl-5-(1-methyl-1H-pyrazol-4-yl)-pyridin-2-ylamine bis-hydrochloride], the IC50 in test [1] and in test [2] was 1 to 20 µM each time.

Consider `Nc1ncc(-c2cnn(CCC(=O)N3CCC(O)CC3)c2)cc1-c1nc2ccccc2s1` [Example 290, 3-[4-(6-Amino-5-benzothiazol-2-ylpyridin-3-yl)-pyrazol-1-yl]-1-(4-hydroxypiperidin-1-yl)-propan-1-one], for which the IC50 in test [1] was in the range of 1 to 20 µM; in test [2] it was 0.1 to 1 µM.

`Cn1cc(-c2cnc(N)c(-c3cc4ccccc4o3)c2)cn1` [Example 101, 3-Benzofuran-2-yl-5-(1-methyl-1H-pyrazol-4-yl)-pyridin-2-ylamine bis-hydrochloride]: the half-maximal inhibitory concentration (IC50) in test [1] and in test [2] was 1 to 20 µM throughout.

With `Nc1ncc(-c2cnn(C3CCN(CC(=O)N4CCCCC4)CC3)c2)cc1-c1nc2ccccc2s1` [Example 168, 2-{4-[4-(6-Amino-5-benzothiazol-2-ylpyridin-3-yl)-pyrazol-1-yl]-piperidin-1-yl}-1-piperidin-1-ylethanone], the IC50 in test [1] and in test [2] was 0.1 to 1 µM each time.

In the case of `Nc1ncc(-c2cnn(C3CCNCC3)c2)cc1-c1oc2ccccc2c1-c1ccccc1` [Example 96, 3-(3-Phenylbenzofuran-2-yl)-5-(1-piperidin-4-yl-1H-pyrazol-4-yl)pyridine-2-ylamine], the IC50 in test [1] and in test [2] was 1 to 20 µM in each case.

For the compound `CC(=O)NCCNC(=O)c1cccc(-c2cnc(N)c(-c3nc4ccccc4s3)c2)c1` [Example 205, N-(2-Acetylaminoethyl)-3-(6-amino-5-benzothiazol-2-ylpyridin-3-yl)benzamide], the IC50 in test [1] and in test [2] was 1 to 20 µM each time.

`NC(=O)C1CCN(C(=O)c2cccc(-c3cnc(N)c(-c4nc5ccccc5s4)c3)c2)CC1` [Example 219, 1-[3-(6-Amino-5-benzothiazol-2-ylpyridin-3-yl)benzoyl]piperidine-4-carboxylic acid amide]: the values for the IC50 in test [1] and in test [2] were above 20 µM and 0.1 to 1 µM, respectively.

Regarding `CN(C)C(=O)CN1CCN(C(=O)c2cccc(-c3cnc(N)c(-c4nc5ccccc5s4)c3)c2)CC1` [Example 215, 2-{4-[3-(6-Amino-5-benzothiazol-2-ylpyridin-3-yl)benzoyl]piperazin-1-yl}-N,N-dimethylacetamide], the IC50 in test [1] and in test [2] was 1 to 20 µM each time.
